Source: US20260049076A1, “Tertiary Amine Substituted Bicyclic Compounds Useful as T Cell Activators” (BRISTOL-MYERS SQUIBB COMPANY, priority 2022, published 2026)

Key:
human DGKα = biological target: T1, human DGKα (Homo sapiens, UniProt P23743); experiment: In vitro DGK inhibition assay, DGKα liposome (LIPGLO) assay; format: biochemical; conditions: read-out: Enzyme Inhibition DGKalpha IC50
T1 construct: TVMV protease cleavage site (C); Hexa-His (C); made in house; host or cells: Sf9 insect cells (baculovirus)
T1 sequence (P23743 with tags, fused parts or gaps): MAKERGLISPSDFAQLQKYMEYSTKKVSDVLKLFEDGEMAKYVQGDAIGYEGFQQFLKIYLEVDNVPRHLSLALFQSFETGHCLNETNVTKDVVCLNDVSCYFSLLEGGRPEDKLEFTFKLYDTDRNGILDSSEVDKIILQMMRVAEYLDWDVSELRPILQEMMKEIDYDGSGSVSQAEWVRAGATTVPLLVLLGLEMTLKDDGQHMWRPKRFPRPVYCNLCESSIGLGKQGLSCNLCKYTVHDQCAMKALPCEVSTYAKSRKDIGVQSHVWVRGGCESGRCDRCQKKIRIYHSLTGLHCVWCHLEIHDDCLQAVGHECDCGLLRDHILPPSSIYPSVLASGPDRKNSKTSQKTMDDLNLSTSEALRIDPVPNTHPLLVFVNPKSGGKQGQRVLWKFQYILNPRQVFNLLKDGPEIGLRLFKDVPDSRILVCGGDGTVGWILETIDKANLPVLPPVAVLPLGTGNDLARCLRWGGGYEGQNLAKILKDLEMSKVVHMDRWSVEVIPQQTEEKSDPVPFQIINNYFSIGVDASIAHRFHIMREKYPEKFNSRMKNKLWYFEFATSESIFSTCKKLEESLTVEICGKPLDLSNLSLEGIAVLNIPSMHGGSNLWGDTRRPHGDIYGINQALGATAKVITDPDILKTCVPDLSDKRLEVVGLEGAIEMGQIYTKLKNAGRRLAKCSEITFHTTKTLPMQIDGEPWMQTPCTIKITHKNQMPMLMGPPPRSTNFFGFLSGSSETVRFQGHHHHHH
Summary of the method: (§1)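 Baculovirus/Sf9-expressed His-tagged human DGKα or DGKζ (5 nM) on extruded liposomes (2 mM PS, 0.25 mM DAG, 2.75 mM PC) in MOPS pH 7.5 with MgCl2, CaCl2 and 150 μM ATP, 1 h.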

DGKzeta = DGKzeta (Homo sapiens, UniProt Q13574); experiment: Translocation DGKzeta; format: cell-based
Chain of DGKzeta (Q13574 whole entry): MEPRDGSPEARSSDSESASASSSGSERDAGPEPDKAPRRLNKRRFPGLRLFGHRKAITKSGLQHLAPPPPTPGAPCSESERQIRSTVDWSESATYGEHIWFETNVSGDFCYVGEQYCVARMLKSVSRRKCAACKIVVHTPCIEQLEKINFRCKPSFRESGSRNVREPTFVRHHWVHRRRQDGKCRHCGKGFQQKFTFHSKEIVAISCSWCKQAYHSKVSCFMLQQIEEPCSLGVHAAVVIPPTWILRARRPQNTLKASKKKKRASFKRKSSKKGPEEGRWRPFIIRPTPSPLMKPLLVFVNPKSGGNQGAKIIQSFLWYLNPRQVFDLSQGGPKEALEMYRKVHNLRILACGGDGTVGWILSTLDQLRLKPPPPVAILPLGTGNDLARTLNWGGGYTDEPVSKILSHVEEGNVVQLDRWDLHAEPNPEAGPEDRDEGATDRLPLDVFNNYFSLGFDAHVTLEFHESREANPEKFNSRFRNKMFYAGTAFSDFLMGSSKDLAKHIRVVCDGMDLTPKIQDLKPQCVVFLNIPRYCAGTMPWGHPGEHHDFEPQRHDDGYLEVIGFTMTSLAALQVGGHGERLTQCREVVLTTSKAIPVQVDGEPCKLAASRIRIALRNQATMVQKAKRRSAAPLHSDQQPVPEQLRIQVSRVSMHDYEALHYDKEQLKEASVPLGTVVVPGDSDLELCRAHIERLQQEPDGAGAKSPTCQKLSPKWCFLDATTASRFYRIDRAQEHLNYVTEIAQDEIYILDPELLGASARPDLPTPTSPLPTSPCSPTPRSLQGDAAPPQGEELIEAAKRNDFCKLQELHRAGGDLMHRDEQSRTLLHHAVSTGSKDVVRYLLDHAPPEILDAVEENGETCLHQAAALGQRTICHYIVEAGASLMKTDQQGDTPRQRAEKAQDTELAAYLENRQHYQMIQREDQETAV

human DGKζ = biological target: T2, human DGKζ (Homo sapiens, UniProt Q13574); experiment: In vitro DGK inhibition assay, DGKζ liposome (LIPGLO) assay; format: biochemical; conditions: read-out: Enzyme Inhibition DGKzeta IC50
T2 construct: TVMV protease cleavage site (C); Hexa-His (C); made in house; host or cells: Sf9 insect cells (baculovirus)
T2 sequence (Q13574 with tags, fused parts or gaps isoform Q13574-4): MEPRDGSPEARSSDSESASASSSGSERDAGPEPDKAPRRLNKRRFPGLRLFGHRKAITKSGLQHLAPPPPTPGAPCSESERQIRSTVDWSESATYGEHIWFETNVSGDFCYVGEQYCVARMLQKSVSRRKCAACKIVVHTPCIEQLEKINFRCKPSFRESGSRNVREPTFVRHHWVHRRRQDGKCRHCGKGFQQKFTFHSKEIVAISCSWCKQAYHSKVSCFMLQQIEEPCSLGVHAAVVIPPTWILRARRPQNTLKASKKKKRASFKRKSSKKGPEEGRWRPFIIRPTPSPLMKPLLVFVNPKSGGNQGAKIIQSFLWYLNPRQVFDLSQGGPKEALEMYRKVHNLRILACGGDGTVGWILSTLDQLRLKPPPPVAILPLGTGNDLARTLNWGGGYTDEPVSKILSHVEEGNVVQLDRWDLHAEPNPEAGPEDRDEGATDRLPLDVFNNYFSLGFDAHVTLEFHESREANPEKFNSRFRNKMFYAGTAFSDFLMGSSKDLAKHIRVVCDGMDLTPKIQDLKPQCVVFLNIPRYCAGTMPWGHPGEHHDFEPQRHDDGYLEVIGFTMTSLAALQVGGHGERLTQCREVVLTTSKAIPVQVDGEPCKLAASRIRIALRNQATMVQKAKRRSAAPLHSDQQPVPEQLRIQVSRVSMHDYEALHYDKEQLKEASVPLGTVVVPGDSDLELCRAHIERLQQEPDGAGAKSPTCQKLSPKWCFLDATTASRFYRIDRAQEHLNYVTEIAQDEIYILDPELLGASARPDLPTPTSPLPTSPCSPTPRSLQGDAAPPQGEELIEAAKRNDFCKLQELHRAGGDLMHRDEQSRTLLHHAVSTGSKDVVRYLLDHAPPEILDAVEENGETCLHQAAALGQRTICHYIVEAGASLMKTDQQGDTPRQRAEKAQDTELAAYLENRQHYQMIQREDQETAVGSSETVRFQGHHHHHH
Summary of the method: as §1

SMILES	IC50 (human DGKα) [µM]	EC50 (DGKzeta) [µM]	IC50 (human DGKζ) [µM]
Cn1c(=O)cc(N(CC2CC2)c2ccc(OC(F)F)c(C#N)c2)c2nc(C#N)ccc21 [Example 63, 8-((3-cyano-4-(difluoromethoxy)phenyl)(cyclopropylmethyl)amino)-5-methyl-6-oxo-5,6-dihydro-1,5-naphthyridine-2-carbonitrile]	6.3	1.3	12
Cn1c(=O)cc(N(CC2CC2)c2ccc(F)nc2)c2nc(C#N)ccc21 [Example 64, 8-((cyclopropylmethyl)(6-fluoropyridin-3-yl)amino)-5-methyl-6-oxo-5,6-dihydro-1,5-naphthyridine-2-carbonitrile]	0.15	1.6	3
Cn1c(=O)cc(N(CC2CC2)c2ccc(C#N)nc2)c2nc(C#N)ccc21 [Example 66, 8-((6-cyanopyridin-3-yl)(cyclopropylmethyl)amino)-5-methyl-6-oxo-5,6-dihydro-1,5-naphthyridine-2-carbonitrile]	17	3	8.4
CN(C)c1ccc(-c2ccc(N(CC3CC3)c3cc(=O)n(C)c4ccc(C#N)nc34)cc2)cc1 [Example 87, 8-((cyclopropylmethyl)(4′-(dimethylamino)-[1,1′-biphenyl]-4-yl)amino)-5-methyl-6-oxo-5,6-dihydro-1,5-naphthyridine-2-carbonitrile]	1.1		2
CN(C)c1cccc(-c2ccc(N(CC3CC3)c3cc(=O)n(C)c4ccc(C#N)nc34)cc2)c1 [Example 89, 8-((cyclopropylmethyl)(3′-(dimethylamino)-[1,1′-biphenyl]-4-yl)amino)-5-methyl-6-oxo-5,6-dihydro-1,5-naphthyridine-2-carbonitrile]	2.5		0.92
COc1cc(-c2ccc(N(CC3CC3)c3cc(=O)n(C)c4ccc(C#N)nc34)cc2)ccn1 [Example 90, 8-((cyclopropylmethyl)(4-(2-methoxypyridin-4-yl)phenyl)amino)-5-methyl-6-oxo-5,6-dihydro-1,5-naphthyridine-2-carbonitrile]	12		5
Cc1cccc(-c2cccc(N(CC3CC3)c3cc(=O)n(C)c4ccc(C#N)nc34)c2)c1 [Example 92, 8-((cyclopropylmethyl)(3′-methyl-[1,1′-biphenyl]-3-yl)amino)-5-methyl-6-oxo-5,6-dihydro-1,5-naphthyridine-2-carbonitrile]	0.77		7.2
Cn1c(=O)cc(N(CC2CC2)c2cccc(-c3cccc(Cl)c3)c2)c2nc(C#N)ccc21 [Example 94, 8-((3′-chloro-[1,1′-biphenyl]-3-yl) (cyclopropylmethyl)amino)-5-methyl-6-oxo-5,6-dihydro-1,5-naphthyridine-2-carbonitrile]	2.5		9.1
COc1cccc(-c2cccc(N(CC3CC3)c3cc(=O)n(C)c4ccc(C#N)nc34)c2)c1 [Example 95, 8-((cyclopropylmethyl)(3′-methoxy-[1,1′-biphenyl]-3-yl)amino)-5-methyl-6-oxo-5,6-dihydro-1,5-naphthyridine-2-carbonitrile]	2		6.2
Cn1c(=O)cc(N(CC2CC2)c2cccc(-c3ccccc3Cl)c2)c2nc(C#N)ccc21 [Example 97, 8-((2′-chloro-[1,1′-biphenyl]-3-yl)(cyclopropylmethyl)amino)-5-methyl-6-oxo-5,6-dihydro-1,5-naphthyridine-2-carbonitrile]	1.9		8
Cn1c(=O)cc(N(CC2CC2)c2cccc(-c3cccc(O)c3)c2)c2nc(C#N)ccc21 [Example 99, 8-((cyclopropylmethyl)(3′-hydroxy-[1,1′-biphenyl]-3-yl)amino)-5-methyl-6-oxo-5,6-dihydro-1,5-naphthyridine-2-carbonitrile]	1.8		31
CN(C)C(=O)c1ccc(-c2cccc(N(CC3CC3)c3cc(=O)n(C)c4ccc(C#N)nc34)c2)cc1 [Example 101, 3′-((6-cyano-1-methyl-2-oxo-1,2-dihydro-1,5-naphthyridin-4-yl)(cyclopropylmethyl)amino)-N,N-dimethyl-[1,1′-biphenyl]-4-carboxamide]	0.93		13
Cn1c(=O)cc(N(CC2CC2)c2cccc(-c3ccc(CNS(C)(=O)=O)cc3)c2)c2nc(C#N)ccc21 [Example 102, N-((3′-((6-cyano-1-methyl-2-oxo-1,2-dihydro-1,5-naphthyridin-4-yl)(cyclopropylmethyl)amino)-[1,1′-biphenyl]-4-yl)methyl)methanesulfonamide]	0.18		3.5
Cn1c(=O)cc(N(CC2CC2)c2cccc(-c3ccc(C(N)=O)cc3)c2)c2nc(C#N)ccc21 [Example 103, 3′-((6-cyano-1-methyl-2-oxo-1,2-dihydro-1,5-naphthyridin-4-yl)(cyclopropylmethyl)amino)-[1,1′-biphenyl]-4-carboxamide]	0.12		2
Cn1c(=O)cc(N(CC2CC2)c2cccc(-c3cccc(CNS(C)(=O)=O)c3)c2)c2nc(C#N)ccc21 [Example 105, N-((3′-((6-cyano-1-methyl-2-oxo-1,2-dihydro-1,5-naphthyridin-4-yl) (cyclopropylmethyl)amino)-[1,1′-biphenyl]-3-yl)methyl)methanesulfonamide]	33		4.4
CN(C)c1ccc(-c2cccc(N(CC3CC3)c3cc(=O)n(C)c4ccc(C#N)nc34)c2)cc1 [Example 107, 8-((cyclopropylmethyl)(4′-(dimethylamino)-[1,1′-biphenyl]-3-yl)amino)-5-methyl-6-oxo-5,6-dihydro-1,5-naphthyridine-2-carbonitrile]	0.022		2
CN(C)C(=O)c1cccc(-c2cccc(N(CC3CC3)c3cc(=O)n(C)c4ccc(C#N)nc34)c2)c1 [Example 108, 3′-((6-cyano-1-methyl-2-oxo-1,2-dihydro-1,5-naphthyridin-4-yl)(cyclopropylmethyl)amino)-N,N-dimethyl-[1,1′-biphenyl]-3-carboxamide]	44		3.7
Cn1c(=O)cc(N(CC2CC2)c2ccc(C3CCC3)cc2)c2nc(C#N)ccc21 [Example 118, 8-((4-cyclobutylphenyl) (cyclopropylmethyl)amino)-5-methyl-6-oxo-5,6-dihydro-1,5-naphthyridine-2-carbonitrile]	9.3	0.013	1.3

The remaining compounds from weak to strong by IC50 (human DGKα), led by results:

IC50 (human DGKα) [µM]	EC50 (DGKzeta) [µM]	IC50 (human DGKζ) [µM]	SMILES
41		5.2	Cn1c(=O)cc(N(CC2CC2)c2cccc(-c3cccc(C(N)=O)c3)c2)c2nc(C#N)ccc21 [Example 104, 3′-((6-cyano-1-methyl-2-oxo-1,2-dihydro-1,5-naphthyridin-4-yl) (cyclopropylmethyl)amino)-[1,1′-biphenyl]-3-carboxamide]
16	0.29	18	Cn1c(=O)cc(N(CC2CC2)[C@H]2CC[C@H](c3ccccc3)CC2)c2nc(C#N)ccc21 [Example 121, 8-((cyclopropylmethyl)((1r,4r)-4-phenylcyclohexyl)amino)-5-methyl-6-oxo-5,6-dihydro-1,5-naphthyridine-2-carbonitrile]
13	0.041	12	Cn1c(=O)cc(N(CC2CC2)c2ccc(C3CCCCC3)cc2)c2nc(C#N)ccc21 [Example 119, 8-((4-cyclohexylphenyl)(cyclopropylmethyl)amino)-5-methyl-6-oxo-5,6-dihydro-1,5-naphthyridine-2-carbonitrile]
12		7.3	COc1cc(-c2cccc(N(CC3CC3)c3cc(=O)n(C)c4ccc(C#N)nc34)c2)ccn1 [Example 110, 8-((cyclopropylmethyl)(3-(2-methoxypyridin-4-yl)phenyl)amino)-5-methyl-6-oxo-5,6-dihydro-1,5-naphthyridine-2-carbonitrile]
6.3		3.7	CN(C)c1cccc(-c2cccc(N(CC3CC3)c3cc(=O)n(C)c4ccc(C#N)nc34)c2)c1 [Example 109, 8-((cyclopropylmethyl)(3′-(dimethylamino)-[1,1′-biphenyl]-3-yl)amino)-5-methyl-6-oxo-5,6-dihydro-1,5-naphthyridine-2-carbonitrile]
4.2		9.2	Cc1ccccc1-c1cccc(N(CC2CC2)c2cc(=O)n(C)c3ccc(C#N)nc23)c1 [Example 93, 8-((cyclopropylmethyl)(2′-methyl-[1,1′-biphenyl]-3-yl)amino)-5-methyl-6-oxo-5,6-dihydro-1,5-naphthyridine-2-carbonitrile]
3.2		0.88	CN(C)C(=O)c1cccc(-c2ccc(N(CC3CC3)c3cc(=O)n(C)c4ccc(C#N)nc34)cc2)c1 [Example 88, 4′-((6-cyano-1-methyl-2-oxo-1,2-dihydro-1,5-naphthyridin-4-yl)(cyclopropylmethyl)amino)-N,N-dimethyl-[1,1′-biphenyl]-3-carboxamide]
2.9		5.4	COc1ccccc1-c1cccc(N(CC2CC2)c2cc(=O)n(C)c3ccc(C#N)nc23)c1 [Example 96, 8-((cyclopropylmethyl)(2′-methoxy-[1,1′-biphenyl]-3-yl)amino)-5-methy-6-oxo-5,6-dihydro-1,5-naphthyridine-2-carbonitrile]
0.66		2.2	Cn1c(=O)cc(N(CC2CC2)c2cccc(-c3cccnc3)c2)c2nc(C#N)ccc21 [Example 106, 8-((cyclopropylmethyl)(3-(pyridin-3-yl)phenyl)amino)-5-methyl-6-oxo-5,6-dihydro-1,5-naphthyridine-2-carbonitrile]
0.023		3.2	COc1ccc(-c2cccc(N(CC3CC3)c3cc(=O)n(C)c4ccc(C#N)nc34)c2)cc1 [Example 91, 8-((cyclopropylmethyl)(4′-methoxy-[1,1′-biphenyl]-3-yl)amino)-5-methyl-6-oxo-5,6-dihydro-1,5-naphthyridine-2-carbonitrile]
